Laboratory results: patent publication US9895390B2, “Methods and assays for combination treatment of cancer” (CHILDREN'S MEDICAL CENTER CORPORATION, priority 2012, dated 2018)
Entries after “also recorded” stand apart in the source; their conditions may differ.

How the values were obtained:
[1] = tested on: p57, p21, p27, Brg1 and EGFR expression; experiment: Quantitative RT-PCR in treated cell lines; format: cell-based, human; details: Sw1573, Calu6, H23, H460 and PC9; 1 μM DZNep, 4 days
Method: RNA from treated cell lines was extracted from using Trizol. Equal amounts of RNA were incubated with DNAse I before cDNA was made using the SuperScript III™ kit (Invitrogen). Relative gene expression was assayed with Sybr green on the StepOnePlus™ Real-Time PCR System (Applied Biosystems). Relative expression was calculated by Gene of Interest (Ctreference-Ctexprimental)-CYPA(Ctreference-Ctexperimental) and graphed on the log 2 scale. For all experiments, the reference sample was a matched untreated or control transduced cell line. Primer sequences:
RNA from treated cell lines was extracted using Absolutely RNA™ kits (Agilent) and cDNA was made using the SuperScript III™ kit (Invitrogen). Relative gene expression was assayed with Sybr green on the StepOnePlus™ Real-Time PCR System (Applied Biosystems). Relative expression was calculated by Gene of Interest(Ctreference-Ctexperimental)-CYPA(Ctreference-Cteexperimental) and graphed on the log 2 scale. For all experiments, the reference sample was a matched untreated or control transduced cell line.

[2] = tested on: BRG1 mutant and BRG1 wild-type cell lines; experiment: Anaphase bridge analysis; format: cell-based, human
Method: To quantify anaphase bridges, cells were grown on 4-well cultures slides (Lab Tek II). Adherent cells were fixed with 4% paraformaldehyde for 20 min, washed and stained with Vectashield™ with 4′,6-diamidino-2-phenylindole (DAPI; Vector Labs). Images were taken of each anaphase structure, and the number of anaphases with bridges over the total number of anaphases (between 11 and 34 total anaphases per well of a 4-well chamber slide) was recorded for each of three or more independent biological replicate experiments.

HCC15 [3] = experiment: Etoposide dose response curves with or without DZNep, stably transduced lines; format: cell-based, human; details: HCC15 control cells
Method: (§1) Cell lines were dissociated, counted and plated at 5000 cells per well in flat bottom opaque tissue culture treated 96 well plates (CytoOne). Edge wells were filled with PBS. The following day, 2× drug diluted in media was added to each well such that the well then contained 100 ul media with 1× drug concentration. After 4 days, Cell Titer Glo™ (Promega) was added and luminescence was read on a BioTec plate reader to determine relative cell number in each well. Data were averaged for triplicate or quadruplicate technical replicates, normalized to the untreated wells and input into GraphPad Prism software to extrapolate IC50.
as §1, with “concentration at the following doses: etoposide; 0, 0.1, 1, 3, 5, 7, 10, 50, 100, 500 μM, cisplatin; 0, 0.1, 1, 5, 10, 30, 70, 100, 500 μM, or doxorubicin; 0, 0.01, 0.1, 0.5, 1, 3, 5, 7, 10, 50 μM.” for “concentration.”, “CELLTITER-GLO™” for “Cell Titer Glo™”, “replicates and” for “replicates,”, “wells. […]” for “wells and input into GraphPad Prism software to extrapolate IC50.”

H460 [4] = experiment: as above; format: cell-based, human; details: H460 control cells
Method: as §1
as §1, with “concentration at the following doses: etoposide; 0, 0.1, 1, 3, 5, 7, 10, 50, 100, 500 μM, cisplatin; 0, 0.1, 1, 5, 10, 30, 70, 100, 500 μM, or doxorubicin; 0, 0.01, 0.1, 0.5, 1, 3, 5, 7, 10, 50 μM.” for “concentration.”, “CELLTITER-GLO™” for “Cell Titer Glo™”, “replicates and” for “replicates,”, “wells. […]” for “wells and input into GraphPad Prism software to extrapolate IC50.”

[5] = tested on: sensitized and protected NSCLC cell lines; experiment: 7AAD cell cycle flow cytometry; format: cell-based, human
Method: (§2) Cell lines were plated at 1.5×10^6 cells per 10 cm plate and treated with drug for 4 days. Cells were then dissociated, fixed with 100% ice cold Ethanol for at least 2 hours, incubated for 30 minutes with 1 mg/mL RNase A and resuspended in 20 μg/mL 7AAD. 30,000 events were collected on the BD Facscalibur™ and analyzed with the ModFit LT™ software. In cases where etoposide treated cells had such abnormal ploidy that ModFit LT™ was unable to correctly model the cell cycle, the data was analyzed manually on FlowJo™ software by setting the gates on the etoposide sample and copying them to the etoposide+DZNep and etoposide shEZH2 samples.
(§3) For 7AAD-cell cycle analysis, cell lines were plated at 1.5×10^6 cells per 10 cm plate and treated with drug for 4 days. Cells were then dissociated, fixed with 100% ice cold Ethanol for at least 2 hours, incubated for 30 minutes with 1 mg/mL DNase-free RNase A (Thermo) and resuspended in 20 μg/mL 7-Aminoactinomycin D (7AAD; Invitrogen). 30,000 events were collected on the BD FORTESSA™ and analyzed with the MODFIT LT™ software. Results from three to four independent biological replicate experiments were averaged for each cell line.

HCC15 [6] = experiment: 7AAD cell cycle flow cytometry, stably transduced lines; format: cell-based, human
Method: as §2, §3

H460 [7] = experiment: as above; format: cell-based, human; details: etoposide treated H460 shBrg1 and EGFR over-expression
Method: as §2, §3

human NSCLC lines = experiment: Growth rates over 10 day time-course (Cell Titer Glo), 12 cell lines; format: cell-based; details: 1 μM DZNep, 10 day time-course
Method: FIG. 2A depicts a Western Blot for EZH2 and H3K27me3 performed on whole cell extracts 4 days after indicated treatments, β-actin shown as a loading control. FIG. 2B depicts a graph of the growth rates of matched shGFP and shGFP cells treated with 1 μM DZNep and assayed by Cell Titer Glo at days 3, 5, 7, and 10 post plating at equal densities. Average luminescence ±s.e.m. for 3 replicate wells is shown based on when each shGFP cell line reached logarithmic growth, * indicates p<0.03. FIG. 2C depicts a graph of the response to Etoposide. Cell lines were plated at equal densities and treated a range of etoposide doses with or without 1 μM DZNep. On the 4th day, cell viability was measured using Cell Titer Glo and the percent survival at each dose of etoposide was calculated. Dose response curves were generated for the no DZNep and DZNep treated cells using the GraphPad prism software and IC50s were extrapolated. The fold change±s.e.m. of etoposide IC50 in response to DZNep is plotted, n=4 biological replicates, * indicates p<0.05. Cell lines with mutations in Brg1, EGFR and B-Raf are indicated.

SMILES: Nc1nccc2c1ncn2[C@@H]1C=C(CO)[C@@H](O)[C@H]1O [DZNep, 3-Deazaneplanocin A]
- BRG1 transcript [1]: reproducibly increased
- anaphase bridging when challenged with DZNep ([2]; BRG1 mutant cell lines): increased anaphase bridging
- anaphase bridging when challenged with DZNep ([2]; BRG1 wild-type lines): significant decrease
- anaphase bridging (TopoII dysfunction) in response to DZNep ([2]; HCC15 control line): increase in TopoII dysfunction
- decrease in etoposide IC50 in response to DZNep (HCC15 [3]): 2 fold
- increase in etoposide IC50 in response to DZNep (H460 [4]): 2 fold
- average fewer cells in S phase vs etoposide alone ([5]; protected cell lines, 10 μM etoposide + 1 μM DZNep, 4 days): 10%
- average fewer cells in S phase vs etoposide alone ([5]; protected lines, 5 μM etoposide, DZNep 1 μM or shEZH2, 4 days): 14%
- average more cells in S phase in response to DZNep ([5]; sensitized cell lines, 10 μM etoposide + 1 μM DZNep, 4 days): 20%
- average more cells in S phase ([5]; sensitized lines, 5 μM etoposide, DZNep 1 μM or shEZH2, 4 days): 14%
- S phase change in response to DZNep (HCC15 [6]; etoposide treated HCC15 Brg1 over-expression): dramatically smaller accumulation in S phase; also recorded: did not accumulate in S phase
- S phase change in response to DZNep (HCC15 [6]; etoposide treated HCC15 shEGFR): decrease in S phase; also recorded: no additional increase in S phase
- S phase change in response to DZNep (H460 [7]): enriched for S phase
- cell lines with reduced growth rates (human NSCLC lines): 11 out of 12
